In the OligoGym collection:
Where “and” joins values, the source holds several entries; their conditions need not be identical. Identical values can stand only once. After the bases stand the sugars from the 5' end (letter, count) and the backbone: PS all phosphorothioate, else s phosphorothioate and o phosphodiester by linkage. Methylation of C is not given here. e = 2'-O-(2-methoxyethyl) (MOE); k = constrained ethyl (cEt); d = 2'-deoxy (DNA)

Target: IRF4
Details: ASO

Row | Sequence | target mRNA inhibition (MM.1R, 1 µM) | target mRNA inhibition (SK-MEL-28, 4 µM) | also measured
1 | GCAAAACCAGTACAGT (sugars k3 d10 k3, PS) | 11% | 58% | target mRNA inhibition (MM.1R, 0.0625 µM): 3%; target mRNA inhibition (MM.1R, 0.074 µM): 17%; target mRNA inhibition (MM.1R, 0.222 µM): 0%; target mRNA inhibition (MM.1R, 0.25 µM): 6%; target mRNA inhibition (MM.1R, 0.666 µM): 4%; target mRNA inhibition (MM.1R, 2 µM): 13%; target mRNA inhibition (MM.1R, 4 µM): 26%
2 | GCAAAACGCAGAGCCA (sugars k3 d10 k3, PS) | – | 57% | –
3 | GCAAACGACAAGTGGC (sugars k3 d10 k3, PS) | -15% | – | –
4 | GCAAAGCAAGTGTCTA (sugars k3 d10 k3, PS) | – | 43% | –
5 | GCAACACGGGAATTTC (sugars k3 d10 k3, PS) | – | 66% and 74% | –
6 | GCAATCTTAACCTGGA (sugars k3 d10 k3, PS) | 37% and 38% | – | target mRNA inhibition (MM.1R, 0.0625 µM): -3% and 3%; target mRNA inhibition (MM.1R, 0.25 µM): 8%; target mRNA inhibition (MM.1R, 4 µM): 70% and 71%
7 | GCACACGCAGCCTCTA (sugars k3 d10 k3, PS) | – | 5% | –
8 | GCACAGCCCTTGGTTA (sugars k3 d10 k3, PS) | 3% | – | –
9 | GCACAGTCTCTTTTTA (sugars k3 d10 k3, PS) | – | 36% | –
10 | GCACAGTCTTTTCGCA (sugars k3 d10 k3, PS) | – | 20% | –
11 | GCACATCAATGTTTTA (sugars k2 d9 e3 k2, PS) | 20% | – | –
12 | GCACATCAATGTTTTA (sugars k3 d10 k3, PS) | – | 67% | –
13 | GCACATCAATGTTTTA (sugars kdddddddddkekeke, PS) | 17% and 15% | – | –
14 | GCACATCAATGTTTTA (sugars kkdddddddddkekek, PS) | 18% and 15% | – | –
15 | GCACGAGGAAGCATAG (sugars k3 d10 k3, PS) | – | 58% | –
16 | GCACGGAGAGGGCGAG (sugars k3 d10 k3, PS) | 4% | – | –
17 | GCAGAAACAGCCCACT (sugars k3 d10 k3, PS) | – | 41% | –
18 | GCAGAACGAGGTAAAT (sugars k3 d10 k3, PS) | – | 62% | –
19 | GCAGGGACCGCGCCAG (sugars k3 d10 k3, PS) | 10% | – | –
20 | GCAGTGATGTCAGGTT (sugars kkdddddddddkekek, PS) | 69% | – | target mRNA inhibition (MM.1R, 0.074 µM): 14%; target mRNA inhibition (MM.1R, 0.222 µM): 37%; target mRNA inhibition (MM.1R, 0.666 µM): 60%; target mRNA inhibition (MM.1R, 2 µM): 81%
21 | GCAGTGATGTCAGGTT (sugars kkkdddddddddkeke, PS) | 56% | – | –
22 | GCAGTTCTTAATATCA (sugars k3 d10 k3, PS) | – | 60% | –
23 | GCATAGAGTCACCTGG (sugars k3 d10 k3, PS) | – | 39% | –
24 | GCATAGGCATCCTTCC (sugars k3 d10 k3, PS) | 8% | – | –

Row | Sequence | target mRNA inhibition (MM.1R, 1 µM) | target mRNA inhibition (SK-MEL-28, 4 µM) | also measured
25 | GCATGCAAGCCCGTTA (sugars k3 d10 k3, PS) | – | -1% | –
26 | GCATGGATCCTGAGAG (sugars k3 d10 k3, PS) | 11% | – | –
27 | GCATTATCTACCTCAG (sugars k3 d10 k3, PS) | – | 69% | –
28 | GCATTTTATCATCCGA (sugars k3 d10 k3, PS) | – | 63% | –
29 | GCATTTTATCATCCGA (sugars kkdddddddddkekek, PS) | 48% | – | –
30 | GCATTTTATCATCCGA (sugars kkkddddddddkekek, PS) | 45% | – | –
31 | GCCAAGGACACCACCT (sugars k3 d10 k3, PS) | – | -2% | –
32 | GCCAATCAGATGTCAC (sugars k3 d10 k3, PS) | – | 46% | –
33 | GCCAATGCAACTGAAT (sugars k3 d10 k3, PS) | – | 36% | –
34 | GCCACTGGCGGAGCTT (sugars k3 d10 k3, PS) | – | 23% | –
35 | GCCATGGCTGATCGCT (sugars k3 d10 k3, PS) | – | 30% | –
36 | GCCCACTGAGTGTGCA (sugars k3 d10 k3, PS) | – | 10% | –
37 | GCCCATGAGTTGAAAG (sugars k3 d10 k3, PS) | – | 32% | –
38 | GCCCCGAATAGGACCC (sugars k3 d10 k3, PS) | – | 21% | –
39 | GCCCGGCCGGGCCTTC (sugars k3 d10 k3, PS) | -4% | – | –
40 | GCCGCTGTCGATCTGG (sugars k4 d8 k4, PS) | – | 15% | –
41 | GCCGTTCCTTTTCAGA (sugars k3 d10 k3, PS) | – | 62% | –
42 | GCCTAGAGGTGCCTTC (sugars k3 d10 k3, PS) | 13% | – | –
43 | GCCTAGCATGGATCCT (sugars k3 d10 k3, PS) | -4% | – | –
44 | GCCTGAGTTACCGCAT (sugars k3 d10 k3, PS) | 13% | 70% | target mRNA inhibition (MM.1R, 0.0625 µM): -1%; target mRNA inhibition (MM.1R, 0.074 µM): -3%; target mRNA inhibition (MM.1R, 0.222 µM): -5%; target mRNA inhibition (MM.1R, 0.25 µM): 0%; target mRNA inhibition (MM.1R, 0.666 µM): -9%; target mRNA inhibition (MM.1R, 2 µM): 5%; target mRNA inhibition (MM.1R, 4 µM): 41%
45 | GCCTGGGAGTCCCCGG (sugars k3 d10 k3, PS) | – | 18% | –
46 | GCCTTAATGTTCAGCT (sugars k3 d10 k3, PS) | – | 49% | –
47 | GCCTTGAAGAGCGCGG (sugars k3 d10 k3, PS) | – | 9% | –
